Test results as given in patent publication US20250120957A1, “TREATMENT OF NEUROPSYCHIATRIC DISORDERS WITH TILIVAPRAM” (Alto Neuroscience, Inc., priority 2023, published 2025).

Experiments:
Assay type in all cases: in vivo, human
[1] = test system: healthy patients aged 40 to 65 years old; experiment: Phase 1 three-way crossover study: resting 19 channel EEG and cognitive task ERPs; conditions: vs placebo
Method: (§1) A phase 1 three-way, crossover study was performed as shown in FIG. 1 on healthy patients aged 40 to 65 years old to determine dose and pharmacodynamic outcomes. Patients in the fasted state were orally administered 0.5 or 1.5 mg tilivapram or placebo in the form of an immediate release suspension. Outcomes were measured with a computerized neurocognitive test battery, resting 19 channel EEG, and cognitive task ERPs (event-related potentials). 44 patients were dosed (and used for AE analyses), of which 40 received all three doses (and used for analysis of cognitive, EEG and ERP outcomes).
Theta (4-8 Hz) is an EEG rhythm involving connections between the hippocampus and prefrontal cortex. Frontal midline resting theta power is elevated across a range of cognitive disorders, such as schizophrenia, ADHD, Parkinson's disease, Alzheimer's disease and mild cognitive impairment (MCI) (see Newson et al., Front Hum Neurosci., 2019, 12:521 (PMID 30687041)). Increased theta power correlates with poorer cognitive task performance. […] Tilivapram has a wide therapeutic window as there were significant decreases in theta power at both the 0.5 mg and 1.5 mg doses.
Stimulus-induced theta response, such as measured by inter-trial coherence, phase locking factor or event-related spectral perturbation, reflect the brain response during stimulus processing, is reduced in patients with schizophrenia, and the degree of reduction is correlated with the degree of cognitive impairment in these patients (Lee at al., Mol Psychiatry, 2017, 22 (11): 1585-1593, PMID 28167837; Martínez et al., Front Hum Neurosci., 2015, 9:371, PMID 26190988; Xiong et al.,Front Hum Neurosci., 2019, 13:37, PMID 30894804; Hua et al., Biol Psychiatry Cogn Neurosci Neuroimaging., 2023, 8 (12): 1186-1196, PMID: 36931469; Hochberger et al., Int. J. Psychophysiology, 2019, 145:23-29, PMID: 30586570; Wolff et al., Cerebral Cortex, 2022, 32:3441-3456: PMID: 34875019).
Evoked sensory gamma-based responses represent both basic sensory processing as well as higher cognitive functions, such as attention and memory. The onset of a stimulus triggers precisely timed local processing, evident as an increase in gamma-band intertrial phase locking. Gamma-band phase locking at ˜50 ms after stimulus onset is reduced in schizophrenia and other psychotic spectrum disorders such as bipolar disorder (see Roach et al., Schizophr Bull., 34 (5): 907-26, 2008 (PMID 18684772); Javitt et al., Neuropsychopharmacology, 45 (9): 1411-1422, 2020 (PMID 32375159)). […]

[2] = test system: healthy patients aged 40 to 65 years old; experiment: Phase 1 three-way crossover study: computerized neurocognitive test battery; conditions: for global cognition, effect size d relative to placebo / memory, effect size d relative to placebo: 0.5 mg oral
Method: as §1
Tilivapram has a wide therapeutic window in the finger tapping task as there were significant decreases in latency at both the 0.5 mg and 1.5 mg doses.
The effect of tilivapram versus placebo on cognition was examined between subgroups of the study sample differing in their global cognitive composite score at baseline. […] However, examining only participants with baseline global cognition below healthy norms (z<−0.5), the effect of 0.5 mg tilivapram relative to placebo increased to d=0.861, p=0.034. […] Examining participants with global cognition of z<−0.5, the effect on memory becomes larger and statistically significant (d=0.797, p=0.048).

[3] = test system: healthy patients aged 40 to 65 years old; experiment: Phase 1 three-way crossover study: adverse events
Method: as §1
The adverse events were primarily nausea, as expected given the well-known dose-limiting effects of PDE4 inhibitors on nausea. Approximately 28% of people experienced nausea at the 1.5 mg dose, while only 2% did so at the 0.5 mg dose. […] Only one patient discontinued treatment due to an adverse event at the higher dose (1.5 mg) of tilivapram.

[4] = test system: participants; experiment: Phase I open-label 2-way cross-over study of oral solution vs transdermal delivery system: related adverse events
Method: A phase I, open-label, fixed period, 2-way cross-over study was performed to establish the pharmacokinetics and safety of a transdermal delivery system containing tilivapram. In Period 1 Day 1 (P1D1), participants were dosed with 1.0 mg of tilivapram in a liquid oral solution in a fasted state. After a 7-day washout period, participants were dosed with the first set of 4 patches applied by study staff on Period 2 Day 1 (P2D1), which were then removed after 24 hours and 4 new patches applied for an additional 24 hours on Period 2 Day 2 (P2D2) for a total of 48 hours. All but one of the 15 subjects completed the study. One subject withdrew after receiving the oral solution.

[5] = 0.5 and 1.5 mg oral, vs placebo
[6] = oral N=15, transdermal N=14, overall N=15

COc1cnc(C(=O)Nc2c(Cl)c[n+]([O-])cc2Cl)cc1OCC1CC1 [tilivapram, 4-(cyclopropylmethoxy)-N-(3,5-dichloro-1-oxidopyridin-4-yl)-5-methoxypyridine-2-carboxamide]
theta intertrial coherence at the Cz electrode ([1]; 0.5 mg and 1.5 mg oral, auditory stimulus): increased theta intertrial coherence
theta relative power at the Fz electrode (resting EEG) ([1]; 0.5 and 1.5 mg oral immediate release suspension, fasted): decreased theta relative power
gamma-band phase locking approximately 50 ms after onset of a tone auditory stimulus ([1]; 0.5 and 1.5 mg oral, Pz electrode): increased gamma-band phase locking
mismatch negativity (MMN) at the Fz electrode ([1]; 0.5 and 1.5 mg oral, oddball task): increased MMN
global cognition, effect size d relative to placebo ([2]; full sample, p=0.223): 0.274
memory, effect size d relative to placebo ([2]; full sample, p=0.359): 0.207
global cognition, effect size d relative to placebo ([2]; participants with baseline global cognition z<−0.5, p=0.034): 0.861
memory, effect size d relative to placebo ([2]; participants with global cognition z<−0.5, p=0.048): 0.797
processing speed (composite z-score of simple reaction time, choice reaction time and Eriksen flanker tasks) [2, 5]: improved processing speed
psychomotor speed (latency in a finger tapping task) [2, 5]: improved psychomotor speed
people experiencing nausea ([3]; 0.5 mg oral dose): 2%
dizziness and lightheadedness ([3]; 0.5 mg to 1.5 mg oral): substantially increased in a dose-related manner
patients who discontinued treatment due to an adverse event ([3]; 1.5 mg oral dose): one
people experiencing nausea ([3]; 1.5 mg oral dose): Approximately 28%
adverse events ([3]; from the 0.5 mg dose to the 1.5 mg dose, oral): increased substantially
Number of participants with at least 1 TEAE ([4]; oral 1.0 mg fasted N=15, 4 patches x 2 days N=14, overall N=15): 11 (73.3) n (%)
Abdominal pain [4, 6]: 0 n (%)
Administration site erythema [4, 6]: 0 n (%)
Administration site pain [4, 6]: 0 n (%)
Administration site pruritus [4, 6]: 2 (13.3) n (%)
Arthralgia [4, 6]: 0 n (%)
Asthenia [4, 6]: 1 (6.7) n (%)
Dermatitis acneiform [4, 6]: 0 n (%)
Diarrhea [4, 6]: 1 (6.7) n (%)
Dizziness [4, 6]: 6 (40.0) n (%)
Dyspepsia [4, 6]: 1 (6.7) n (%)
Ear and labyrinth disorders [4, 6]: 1 (6.7) n (%)
Fatigue [4, 6]: 0 n (%)
Gastrointestinal disorders [4, 6]: 3 (20.0) n (%)
General disorders and administration site conditions [4, 6]: 2 (13.3) n (%)
Headache [4, 6]: 6 (40.0) n (%)
Insomnia [4, 6]: 0 n (%)
Irritability [4, 6]: 0 n (%)
Musculoskeletal and connective tissue disorders [4, 6]: 0 n (%)
Nausea [4, 6]: 3 (20.0) n (%)
Nervous system disorders [4, 6]: 8 (53.3) n (%)
Neuralgia [4, 6]: 0 n (%)
Number of TEAEs [4, 6]: 28
Psychiatric disorders [4, 6]: 0 n (%)
Skin and subcutaneous tissue disorders [4, 6]: 0 n (%)
Vertigo [4, 6]: 1 (6.7) n (%)
